# Source: ChEMBL document CHEMBL3745679, “Identification and characterization of natural microbial products that alter the free d-aspartate content of mammalian cells” (2016)
# Calls of active or inactive are those of the source. The rule behind the calls is not given here.
# Experiments:
# PC-12 [1] = experiment: Inhibition of D-aspartate biosynthesis in rat PC12 cells assessed as reduction of intracellular D-aspartate content at 10 uM measured at 1 hr by O-phthalaldehyde/N-acetyl-L-cysteine derivatization technique-based HPLC analysis relative to vehicle-treated control; type: functional, cell-based
# PC-12 [2] = experiment: Inhibition of D-aspartate biosynthesis in rat PC12 cells assessed as reduction of total D-aspartate content at 10 uM measured at 1 to 3 hrs by O-phthalaldehyde/N-acetyl-L-cysteine derivatization technique-based HPLC analysis relative to vehicle-treated control; type: functional, cell-based
# HEK293 = experiment: Increase in intracellular D-aspartate content in HEK293 cells at 5 ug after 24 hrs by O-phthalaldehyde/N-acetyl-L-cysteine derivatization technique-based HPLC analysis relative to total aspartate (reference value: 7.38 +/- 1.9%); type: functional, Homo sapiens
# PC-12 [3] = experiment: Effect on L-aspartate biosynthesis in rat PC12 cells assessed as effect on total L-aspartate level up to 10 uM after 24 hrs by O-phthalaldehyde/N-acetyl-L-cysteine derivatization technique-based HPLC analysis; type: functional, cell-based
# PC-12 [4] = experiment: Inhibition of D-aspartate biosynthesis in rat PC12 cells assessed as reduction of intracellular D-aspartate content at 10 uM measured at 3 to 16 hrs by O-phthalaldehyde/N-acetyl-L-cysteine derivatization technique-based HPLC analysis relative to vehicle-treated control; type: functional, cell-based
# PC-12 [5] = experiment: Inhibition of D-aspartate biosynthesis in rat PC12 cells assessed as reduction of total D-aspartate content at 10 uM measured at 6 to 16 hrs by O-phthalaldehyde/N-acetyl-L-cysteine derivatization technique-based HPLC analysis relative to vehicle-treated control; type: functional, cell-based
# PC-12 [6] = experiment: Inhibition of D-aspartate biosynthesis in rat PC12 cells assessed as reduction of total D-aspartate level after 24 hrs by O-phthalaldehyde/N-acetyl-L-cysteine derivatization technique-based HPLC analysis; type: functional, cell-based
# PC-12 [7] = experiment: Inhibition of D-aspartate biosynthesis in rat PC12 cells assessed as reduction of intracellular D-aspartate level up to 10 uM after 24 hrs by O-phthalaldehyde/N-acetyl-L-cysteine derivatization technique-based HPLC analysis; type: functional, cell-based
# PC-12 [8] = experiment: Inhibition of D-aspartate biosynthesis in rat PC12 cells assessed as reduction of D-aspartate level in cell culture medium up to 10 uM after 24 hrs by O-phthalaldehyde/N-acetyl-L-cysteine derivatization technique-based HPLC analysis; type: functional
# PC-12 [9] = experiment: Effect on L-aspartate biosynthesis in rat PC12 cells assessed as effect on intracellular L-aspartate level up to 10 uM after 24 hrs by O-phthalaldehyde/N-acetyl-L-cysteine derivatization technique-based HPLC analysis; type: functional, cell-based
# PC-12 [10] = experiment: Effect on L-aspartate biosynthesis in rat PC12 cells assessed as effect on L-aspartate level in cell culture medium up to 10 uM after 24 hrs by O-phthalaldehyde/N-acetyl-L-cysteine derivatization technique-based HPLC analysis; type: functional
# PC-12 [11] = experiment: Inhibition of D-aspartate biosynthesis in rat PC12 cells assessed as reduction of intracellular D-aspartate content up to 0.5 uM after 24 hrs by O-phthalaldehyde/N-acetyl-L-cysteine derivatization technique-based HPLC analysis; type: functional, cell-based
# PC-12 [12] = experiment: Effect on L-aspartate biosynthesis in rat PC12 cells assessed as effect on intracellular L-aspartate content up to 0.5 uM after 24 hrs by O-phthalaldehyde/N-acetyl-L-cysteine derivatization technique-based HPLC analysis; type: functional, cell-based
# PC-12 [13] = experiment: Inhibition of D-aspartate biosynthesis in rat PC12 cells assessed as reduction of total D-aspartate level up to 0.5 uM after 24 hrs by O-phthalaldehyde/N-acetyl-L-cysteine derivatization technique-based HPLC analysis; type: functional, cell-based
# PC-12 [14] = experiment: Effect on L-aspartate biosynthesis in rat PC12 cells assessed as effect on total L-aspartate content up to 0.5 uM after 24 hrs by O-phthalaldehyde/N-acetyl-L-cysteine derivatization technique-based HPLC analysis; type: functional, cell-based
# PC-12 [15] = experiment: Inhibition of D-aspartate biosynthesis in rat PC12 cells assessed as reduction of total D-aspartate content at 0.2 uM measured at 16 hrs by O-phthalaldehyde/N-acetyl-L-cysteine derivatization technique-based HPLC analysis relative to vehicle-treated control; type: functional, cell-based
# PC-12 [16] = experiment: Inhibition of D-aspartate biosynthesis in rat PC12 cells assessed as reduction of total D-aspartate content at 0.2 uM measured at 1 to 6 hrs by O-phthalaldehyde/N-acetyl-L-cysteine derivatization technique-based HPLC analysis relative to vehicle-treated control; type: functional, cell-based
# PC-12 [17] = experiment: Inhibition of D-aspartate biosynthesis in rat PC12 cells assessed as reduction of intracellular D-aspartate level after 24 hrs by O-phthalaldehyde/N-acetyl-L-cysteine derivatization technique-based HPLC analysis; type: functional, cell-based
# PC-12 [18] = experiment: Effect on L-aspartate biosynthesis in rat PC12 cells assessed as effect on total L-aspartate level up to 0.2 uM after 24 hrs by O-phthalaldehyde/N-acetyl-L-cysteine derivatization technique-based HPLC analysis; type: functional, cell-based
# PC-12 [19] = experiment: Inhibition of D-aspartate biosynthesis in rat PC12 cells assessed as effect on intracellular D-aspartate content at 0.2 uM incubated up to 16 hrs by O-phthalaldehyde/N-acetyl-L-cysteine derivatization technique-based HPLC analysis relative to vehicle-treated control; type: functional, cell-based
# PC-12 [20] = experiment: Inhibition of D-aspartate biosynthesis in rat PC12 cells assessed as reduction of D-aspartate level in cell culture medium after 24 hrs by O-phthalaldehyde/N-acetyl-L-cysteine derivatization technique-based HPLC analysis; type: functional
# PC-12 [21] = experiment: Effect on L-aspartate biosynthesis in rat PC12 cells assessed as effect on intracellular L-aspartate level up to 0.2 uM after 24 hrs by O-phthalaldehyde/N-acetyl-L-cysteine derivatization technique-based HPLC analysis; type: functional, cell-based
# PC-12 [22] = experiment: Effect on L-aspartate biosynthesis in rat PC12 cells assessed as effect on L-aspartate level in cell culture medium up to 0.2 uM after 24 hrs by O-phthalaldehyde/N-acetyl-L-cysteine derivatization technique-based HPLC analysis; type: functional
# PC-12 [23] = experiment: Inhibition of D-aspartate biosynthesis in rat PC12 cells assessed as reduction of D-aspartate content in cell culture medium at 0.2 uM measured at 6 to 12 hrs by O-phthalaldehyde/N-acetyl-L-cysteine derivatization technique-based HPLC analysis relative to vehicle-treated control; type: functional
smiles,measurement,setting,value
COC1=C2C[C@@H](C)C[C@H](OC)[C@H](O)[C@@H](C)/C=C(\C)[C@H](OC(N)=O)[C@@H](OC)/C=C\C=C(/C)C(=O)NC(=CC1=O)C2=O [GELDANAMYCIN],inhibition,PC-12 [1],inactive
same,inhibition,PC-12 [2],inactive
same,Activity,HEK293,15.8%
same,Activity,PC-12 [3],inactive
same,inhibition,PC-12 [4],Active
same,inhibition,PC-12 [5],Active
same,inhibition,PC-12 [6],Dose-dependent effect
same,inhibition,PC-12 [7],Active
same,inhibition,PC-12 [8],Active
same,Activity,PC-12 [9],inactive
same,Activity,PC-12 [10],inactive
CC(C)[C@H]1CC[C@@]2(CO2)[C@H]2C(=O)OCC(C(=O)O)=C[C@H]12,Activity,HEK293,0.291%
same,inhibition,PC-12 [11],inactive
same,Activity,PC-12 [12],inactive
same,inhibition,PC-12 [13],inactive
same,Activity,PC-12 [14],inactive
CO[C@@H](C(=O)[C@H](O)[C@@H](C)O)[C@H]1Cc2cc3cc(O[C@H]4C[C@@H](O[C@@H]5C[C@H](O)[C@@H](O)[C@H](C)O5)[C@H](O)[C@@H](C)O4)c(C)c(O)c3c(O)c2C(=O)[C@@H]1O[C@H]1C[C@@H](O[C@@H]2C[C@H](O[C@H]3C[C@](C)(O)[C@H](O)[C@@H](C)O3)[C@@H](O)[C@H](C)O2)[C@H](O)[C@@H](C)O1,inhibition,PC-12 [15],Active
same,inhibition,PC-12 [16],inactive
same,Activity,HEK293,9.33%
same,inhibition,PC-12 [17],Dose-dependent effect
same,Activity,PC-12 [18],inactive
same,inhibition,PC-12 [19],inactive
same,inhibition,PC-12 [20],Dose-dependent effect
same,Activity,PC-12 [21],inactive
same,Activity,PC-12 [22],inactive
same,inhibition,PC-12 [23],Active
